PubChem BioAssay AID2060338 (Molecular Pharmacology Branch, DTP, NCI, 2025)

Tested on: 556581-035-R-J1-PDC spheroids with HUVEC/MSC, viability
Experiment: Anticancer human tumor 556581-035-R-J1-PDC patient-derived ovarian carcinoma cell line growth inhibition [IpAb]
Settings: for IC50: curve of first compound; for viability, T/C: stronger effect = lower value
Excerpt: Combinatorial screen of targeted agents with ipatasertib and abemaciclib in multi-cell type tumor spheroids
A high-throughput screen of multi-cell type tumor spheroids was designed to identify active combinations of targeted small molecules and ipatasertib or abemaciclib. Complex spheroids include a stromal component modeled by human endothelial cells (HUVEC) and fibroblasts modeled by human mesenchymal stem cells (MSCs). The concentration ranges selected for each drug and investigational agent were based upon clinically achievable concentrations if the clinical Cmax of the agent was known.
Compounds. The drugs and investigational agents: ipatasertib (NSC767898), abemaciclib(NSC768073), selumetinib (NSC741078), trametinib (758246), adavosertib (NSC754352), everolimus (NSC733504), sapanisertib (NSC764658), vemurafenib (NSC761431), venetoclax (NSC766270), copanlisib (NSC809693), apelisib (NSC765974), palbociblib (NSC758247), vemurafenib (NSC761431), dabrafenib (NSC764134), ravoxertinib (NSC781343), BMS-387032 (NSC767048), sotorasib (NSC818433), talazoparib (NSC767125) and afursertib (NSC778305), were obtained from the National Cancer Institute (NCI) Developmental Therapeutics Program Chemical Repository. The FDA-approved anticancer drug set is available from the NCI Developmental Therapeutics Program. […] The stock solutions were prepared in dimethyl sulfoxide (DMSO, Sigma-Aldrich, St. Louis, MO, cat. D2650) at 800-fold the tested concentration and stored at -70 degrees C prior to their use. All drugs and investigational agents were tested over a range starting from a high concentration at or near the clinical Cmax and decreasing in half-log increments. If the clinical Cmax for an agent had not been determined, the highest concentration tested was 10 microM.
NCI60 Cell Culture. NCI60 cell lines were obtained from the NCI Developmental Therapeutics Program Tumor Repository. For each lot of cells, the Repository performed Applied Biosystems AmpFLSTR Identifiler testing with PCR amplification to confirm consistency with the published Identifier STR profile for each cell line. Cells were kept in continuous culture for no more than 20 passages. The optimal seeding densities for each of the cell lines at each time point assessed were determined prior to performing the concentration response studies. Briefly, the NCI60 human tumor lines were grown as monolayers in RPMI 1640 medium supplemented with 10% FBS and 2 mmol/L L-glutamine.
An additional 9 lines were from the NCI60 cell line panel including MDA-MB-231 breast carcinoma, MDA-MB-468 breast carcinoma, MCF7 breast carcinoma, Hs578T breast carcinoma, MALME-3M melanoma, SK-MEL-2 melanoma, SK-OV-3 ovarian carcinoma, DU-145 prostate carcinoma, PC-3 prostate carcinoma, all cell lines along with major genetic alterations are listed on Table 2. Pooled donor human umbilical vein endothelial cells (HUVEC, Lonza, cat. CC-2519) and human mesenchymal stem cells (hMSC, Lonza, cat. PT-2501) were purchased from Lonza (Walkersville, MD).
PDMR cell lines were grown in complete medium (DC medium): Dulbecco's modified Eagle's medium (DMEM)/F12 supplemented with 5% fetal bovine serum (FBS), 2 mM L-glutamine, 100 U/mL penicillin and 100 µg/ml streptomycin, 0.4 µg/ml hydrocortisone, 10 ng/ml epidermal growth factor (EGF) recombinant human protein, 24 µg/mL adenine, and 0.1 mg/mL primocin. During culture from frozen stock vials, PDMR cells were cultured in the same medium containing 10 µM Y-27632 (see Table 3). The PDCs were cultured in complete DMEM/F12 media without 10 microM Y-27632 dihydrochloride for at least two passages prior to the screen. The pooled donor HUVEC and hMSC were cultured in endothelial cell growth medium 2 (PromoCell, Heidelberg, Germany, cat. C-22011) and mesenchymal stem cell growth medium 2 (PromoCell, cat. C-28009), respectively. For all experiments, HUVEC and hMSC were used at passages </=5.
[…]

[1] = second compound 0.1 µM, first compound 0.0316 µM
[2] = second compound 0.1 µM, first compound 0.1 µM
[3] = second compound 0.1 µM, first compound 0.316 µM
[4] = second compound 0.1 µM, first compound 1 µM
[5] = second compound 0.1 µM, first compound 3.16 µM
[6] = second compound 0.1 µM, first compound 10 µM
[7] = second compound 0.316 µM, first compound 0.0316 µM
[8] = second compound 0.316 µM, first compound 0.1 µM
[9] = second compound 0.316 µM, first compound 0.316 µM
[10] = second compound 0.316 µM, first compound 1 µM
[11] = second compound 0.316 µM, first compound 3.16 µM
[12] = second compound 0.316 µM, first compound 10 µM
[13] = second compound 1 µM, first compound 0.0316 µM
[14] = second compound 1 µM, first compound 0.1 µM
[15] = second compound 1 µM, first compound 0.316 µM
[16] = second compound 1 µM, first compound 1 µM
[17] = second compound 1 µM, first compound 3.16 µM
[18] = second compound 1 µM, first compound 10 µM
[19] = second compound 3.16 µM, first compound 0.0316 µM
[20] = second compound 3.16 µM, first compound 0.1 µM
[21] = second compound 10 µM, first compound 0.0316 µM
[22] = second compound 10 µM, first compound 0.1 µM
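Note: spheroids exposed to compounds for 7 days before readout.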

## Cn1nccc1Nc1nccc(-c2ccn(C(CO)c3ccc(Cl)c(F)c3)c(=O)c2)n1 (stereo not given) + CC(C)NCC(C(=O)N1CCN(c2ncnc3c2C(C)CC3O)CC1)c1ccc(Cl)cc1
Second compound 0.1 µM
  IC50: 2480 nM
Second compound 0.316 µM
  IC50: 2330 nM
Second compound 1 µM
  IC50: 165 nM
Second compound 3.16 µM
  IC50: < 31.6 nM
Second compound 10 µM
  IC50: < 31.6 nM
[1]
  viability, T/C: 94.8%
[2]
  viability, T/C: 75.4%
[3]
  viability, T/C: 71.8%
[4]
  viability, T/C: 62.4%
[5]
  viability, T/C: 50.2%
[6]
  viability, T/C: 31.3%
[7]
  viability, T/C: 61.6%
[8]
  viability, T/C: 79.6%
[9]
  viability, T/C: 60.1%
[10]
  viability, T/C: 51.5%
[11]
  viability, T/C: 52.2%
[12]
  viability, T/C: 13.2%
[13]
  viability, T/C: 55.8%
[14]
  viability, T/C: 61.6%
[15]
  viability, T/C: 41%
[16]
  viability, T/C: 29.3%
[17]
  viability, T/C: 24.8%
[18]
  viability, T/C: 9.12%
[19]
  viability, T/C: 48.4%
[20]
  viability, T/C: 36.4%
Second compound 3.16 µM, first compound 0.316 µM
  viability, T/C: 38.1%
Second compound 3.16 µM, first compound 1 µM
  viability, T/C: 22.7%
Second compound 3.16 µM, first compound 3.16 µM
  viability, T/C: 11.6%
Second compound 3.16 µM, first compound 10 µM
  viability, T/C: 5.62%
[21]
  viability, T/C: 35.7%
[22]
  viability, T/C: 31.3%
Second compound 10 µM, first compound 0.316 µM
  viability, T/C: 27.8%
Second compound 10 µM, first compound 1 µM
  viability, T/C: 17.6%
Second compound 10 µM, first compound 3.16 µM
  viability, T/C: 12.3%
Second compound 10 µM, first compound 10 µM
  viability, T/C: 1.97%

## C=CCn1c(=O)c2cnc(Nc3ccc(N4CCN(C)CC4)cc3)nc2n1-c1cccc(C(C)(C)O)n1 + CCN1CCN(Cc2ccc(Nc3ncc(F)c(-c4cc(F)c5nc(C)n(C(C)C)c5c4)n3)nc2)CC1
Second compound 0.01 µM
  IC50: 233 nM
Second compound 0.0316 µM
  IC50: 225 nM
Second compound 0.1 µM
  IC50: 211 nM
Second compound 0.316 µM
  IC50: 177 nM
Second compound 1 µM
  IC50: 36.8 nM
Second compound 0.01 µM, first compound 0.0316 µM
  viability, T/C: 96.9%
Second compound 0.01 µM, first compound 0.1 µM
  viability, T/C: 81.9%
Second compound 0.01 µM, first compound 0.316 µM
  viability, T/C: 32.1%
Second compound 0.01 µM, first compound 1 µM
  viability, T/C: 35.9%
Second compound 0.01 µM, first compound 3.16 µM
  viability, T/C: 42%
Second compound 0.01 µM, first compound 10 µM
  viability, T/C: 44.4%
Second compound 0.0316 µM, first compound 0.0316 µM
  viability, T/C: 102%
Second compound 0.0316 µM, first compound 0.1 µM
  viability, T/C: 78.4%
Second compound 0.0316 µM, first compound 0.316 µM
  viability, T/C: 27.8%
Second compound 0.0316 µM, first compound 1 µM
  viability, T/C: 37.2%
Second compound 0.0316 µM, first compound 3.16 µM
  viability, T/C: 51.3%
Second compound 0.0316 µM, first compound 10 µM
  viability, T/C: 36.3%
[1]
  viability, T/C: 83.3%
[2]
  viability, T/C: 66.3%
[3]
  viability, T/C: 31.8%
[4]
  viability, T/C: 40.9%
[5]
  viability, T/C: 50.6%
[6]
  viability, T/C: 41.4%
[7]
  viability, T/C: 91.4%
[8]
  viability, T/C: 60.7%
[9]
  viability, T/C: 29.2%
[10]
  viability, T/C: 38.1%
[11]
  viability, T/C: 48.1%
[12]
  viability, T/C: 40.7%
[13]
  viability, T/C: 54.5%
[14]
  viability, T/C: 41.1%
[15]
  viability, T/C: 32.9%
[16]
  viability, T/C: 31.5%
[17]
  viability, T/C: 42.5%
[18]
  viability, T/C: 13.9%

## CC(C)n1nc(-c2ccc3oc(N)nc3c2)c2c(N)ncnc21 + CC(C)NCC(C(=O)N1CCN(c2ncnc3c2C(C)CC3O)CC1)c1ccc(Cl)cc1
Second compound 0.1 µM
  IC50: 6.46 nM
Second compound 0.316 µM
  IC50: 6 nM
Second compound 1 µM
  IC50: 3.58 nM
Second compound 3.16 µM
  IC50: 1.47 nM
Second compound 10 µM
  IC50: < 0.316 nM
Second compound 0.1 µM, first compound 0.000316 µM
  viability, T/C: 87.8%
Second compound 0.1 µM, first compound 0.001 µM
  viability, T/C: 68.8%
Second compound 0.1 µM, first compound 0.00316 µM
  viability, T/C: 60.1%
Second compound 0.1 µM, first compound 0.01 µM
  viability, T/C: 47.6%
[1]
  viability, T/C: 29.3%
[2]
  viability, T/C: 24.7%
Second compound 0.316 µM, first compound 0.000316 µM
  viability, T/C: 69.5%
Second compound 0.316 µM, first compound 0.001 µM
  viability, T/C: 65.1%
Second compound 0.316 µM, first compound 0.00316 µM
  viability, T/C: 58%
Second compound 0.316 µM, first compound 0.01 µM
  viability, T/C: 40.9%
[7]
  viability, T/C: 36.6%
[8]
  viability, T/C: 21.3%
Second compound 1 µM, first compound 0.000316 µM
  viability, T/C: 58.6%
Second compound 1 µM, first compound 0.001 µM
  viability, T/C: 67.1%
Second compound 1 µM, first compound 0.00316 µM
  viability, T/C: 50.4%
Second compound 1 µM, first compound 0.01 µM
  viability, T/C: 34%
[13]
  viability, T/C: 28.6%
[14]
  viability, T/C: 25.2%
Second compound 3.16 µM, first compound 0.000316 µM
  viability, T/C: 63.4%
Second compound 3.16 µM, first compound 0.001 µM
  viability, T/C: 52.4%
Second compound 3.16 µM, first compound 0.00316 µM
  viability, T/C: 44.1%
Second compound 3.16 µM, first compound 0.01 µM
  viability, T/C: 34.1%
[19]
  viability, T/C: 27.5%
[20]
  viability, T/C: 18.5%
Second compound 10 µM, first compound 0.000316 µM
  viability, T/C: 48%
Second compound 10 µM, first compound 0.001 µM
  viability, T/C: 44%
Second compound 10 µM, first compound 0.00316 µM
  viability, T/C: 36.8%
Second compound 10 µM, first compound 0.01 µM
  viability, T/C: 25.7%
[21]
  viability, T/C: 17.1%
[22]
  viability, T/C: 16.4%
